Structures can show the parent of a compound that is named as a salt.
Tests used:
[1] = tested on: H9C2 cells, rat cardiomyoblasts; experiment: Rat cardiomyoblasts under ER stress by glucose depletion: cell number and ATP level; type: cell-based; details: glucose-free medium, 25, 50, 100, or 200 μM KUS121 (FIG. 6)
Description: (§1) H9C2 cells, rat cardiomyoblasts, were cultured in Dulbecco's modified Eagle's medium (DMEM) supplemented with 5% fetal bovine serum in the presence of […] tunicamycin (Sigma-Aldrich Co. LLC), which induces ER stress, and 25, 50, 100, or […] KUS121 for 24 hours. The cells were counted by Countess II (Thermo Fisher Scientific). The intracellular ATP levels were measured using “Cell” ATP Assay reagent (TOYO B-Net Co., LTD). The luciferase activities, which indicate ATP levels, were measured with ARVO X3 (PerkinElmer, Inc.).
Similar experiments were performed using the cells cultured in a glucose-free medium. […] The expressions of CHOP and Bip, ER stress markers, were suppressed in the presence of KUS121.

[2] = tested on: CHOP and Bip, ER stress markers; experiment: Western blotting of ER stress markers in rat cardiomyoblasts in glucose-free medium; type: cell-based; details: H9C2 cells, 200 μM KUS121 (FIG. 7)
Description: as §1
(§2) The cells cultured as above were subjected to Western blotting. […] After the protein concentrations were measured with BCA protein assay kit (Bio-Rad, 5000006JA), 15 μg of the protein samples were separated in NuPAGE 4-12% Bis-Tris Mini gels (Thermo Fisher Scientific) and transferred to Protran nitrocellulose transfer membrane (Whatman). The membrane was blocked with PBS containing 5% skim milk for 30 minutes, incubated with primary antibodies overnight at 4° C., washed with PBS-0.05% Tween-20 (PBS-T), incubated with secondary antibodies for 1 hour at room temperature, and washed with PBS-T. Pierce Western Blotting Substrate (Thermo Fisher Scientific) or Pierce Western Blotting Substrate plus (Thermo Fisher Scientific) were reacted with the secondary antibodies for producing colors, and the color intensities were measured by LAS-4000 Mini system (Fuji Film). […]

[3] = tested on: A team mouse heart ischemia and reperfusion injury model; experiment: Mouse heart ischemia and reperfusion injury model (ATP visualization mouse); type: in vivo; details: A team mice, 160 mg/kg i.p. 2 hours before reperfusion, 45 minutes ischemia
Source text: ATP visualization mouse (A team mouse) generated by Dr. Masamichi Yamamoto (Department of Nephrology, Graduate School of Medicine, Kyoto University) was used. In A team mouse fluorescence resonance energy transfer (FRET) from GFP to OFP occurs depending on the intracellular ATP level. The OFP/GFP ratio is proportional to the ATP level.
Anesthesia was induced in each A team mouse with 4% isoflurane and maintained with 2% isoflurane during surgery. An endotracheal tube was introduced after the anesthetic induction and positive pressure ventilation was provided. The lateral thoracic regions and subcostal margins were incised bilaterally and the thoracic cavity was opened to expose the heart. […] The ischemia was continued for 45 minutes and then reperfusion was induced by removing the PE10 tube. KUS121 was intraperitoneally administered at the dose of 160 mg/kg 2 hours before the reperfusion. For measuring the ATP level, fluorescence was excited at 470/40 and detected at 515/30 for GFP and 575/40 for OFP to acquire images. The OFP/GFP ratios were analyzed using MetaMorph (Molecular Devices). The ATP level during ischemia was decreased in the control group, but maintained in the KUS121 group.

[4] = tested on: cardiac ischemia and reperfusion injury model mice; experiment: Mouse cardiac ischemia and reperfusion injury model (KUS administration prior to ischemia); type: in vivo
Description: Eight-week-old C57BL/6J mice were used. Each mouse was anesthetized with intraperitoneally administered pentobarbital (64.8 mg/kg). An endotracheal tube was introduced after the anesthetic induction and positive pressure ventilation was provided.
Each mouse was fixed in a right lateral position, the thoracic cavity was opened through left thoracotomy in the third intercostal space to expose the heart. […] The blockage of the coronary blood flow was confirmed by observing a change in the color of the myocardium. The ischemia was continued for 45 minutes and then reperfusion was induced by removing the PE10 tube. The reperfusion was confirmed by checking restoration of the color of the myocardium. The thoracic cavity was closed with 7-0 prolene sutures and the skin was closed with 4-0 silk sutures. After observing awakening from the anesthesia, the endotracheal tube was removed.
KUS121 dissolved in a physiological saline was injected prior to the ischemia induction. […] First, 2 hours before the reperfusion, i.e., about 1 hour before the start of the ischemia, KUS121 was intraperitoneally administered at the dose of 160 mg/kg. Subsequently, KUS121 was intraperitoneally administered at the dose of 160 mg/kg every 24 hours for 6 days.
Seven days after the surgery, the mice were anesthetized with pentobarbital, perfused with 4% paraformaldehyde (PFA) for fixation, and the hearts were isolated. The isolated hearts were further fixed in 4% PFA overnight. The hearts were embedded in paraffin and sections were prepared. The infarcted regions were evaluated with Masson's trichrome staining. The images were acquired using a microscope (BZ-9000, Keyence) and the infarcted areas were measured using Image J (NIH).
To evaluate the cardiac function, echocardiography (Vevo^(registered trademark) 2100, VISUALSONICS) was performed in the mouse ischemia and reperfusion injury model. […] The left ventricular systolic functions were evaluated by measuring the left ventricular fractional shortening and left ventricular ejection fraction in parasternal short axis views.

[5] = tested on: cardiac ischemia and reperfusion injury model mice; experiment: Mouse cardiac ischemia and reperfusion injury model (KUS administration after reperfusion); type: in vivo; details: seven days after surgery
Description: Mouse myocardial infarction model was prepared as in Test 5.
First, immediately after the reperfusion KUS121 was administered intravenously at the dose of 80 mg/kg and intraperitoneally at the dose of 80 mg/kg. Subsequently, KUS121 was intraperitoneally administered at the dose of 160 mg/kg every 24 hours for 4 days. Seven days after the surgery, histological analysis was performed as in Test 5 to determine the infarcted area.
Immediately after the reperfusion KUS121 was administered intravenously at the dose of 25 mg/kg and intraperitoneally at the dose of 25 mg/kg. Subsequently, KUS121 was not administered. Seven days after the surgery, histological analysis was performed as in Test 5 to determine the infarcted area.
Immediately after the reperfusion KUS121 was administered intravenously at the dose of 8 mg/kg and intraperitoneally at the dose of 8 mg/kg. Subsequently, KUS121 was not administered. Seven days after the surgery, histological analysis was performed as in Test 5 to determine the infarcted area.

[6] = tested on: cardiac ischemia and reperfusion injury model pigs; experiment: Porcine cardiac ischemia and reperfusion injury model (KUS administration after reperfusion); type: in vivo, Yorkshire pig; details: intracoronary injection 0.64, 2.5, or 5.0 mg/kg immediately after reperfusion, seven days after surgery
Description: Porcine myocardial infarction model was prepared as in Test 8. The balloon was released 60 minutes after the occlusion, and immediately KUS121 was administered by intracoronary injection at a dose of 0.64, 2.5, or 5.0 mg/kg for 3 minutes. Seven days after the surgery, the infarct size was evaluated by MRI and the infarcted area was determined by histological analysis as in Test 8.

[7] = tested on: H9C2 cells, rat cardiomyoblasts; experiment: Rat cardiomyoblasts under ER stress with tunicamycin: cell number and ATP level; type: cell-based; details: 0.1 pg/mL tunicamycin, 25, 50, 100, or 200 pM KUS121, 24 hours
Description: as §1

[8] = tested on: cardiac ischemia and reperfusion injury model pigs; experiment: Porcine cardiac ischemia and reperfusion injury model (intravenous and intracoronary administration of KUS); type: in vivo, Yorkshire pig
Description: Porcine myocardial infarction model was prepared by inserting a catheter into a Yorkshire pig under general anesthesia and occluding the left coronary artery with a balloon. An infusion solution was prepared by dissolving KUS121 (4 mg/kg) in 250 mL of glucose solution and administered by intravenous infusion that started 45 minutes after the occlusion of the coronary artery and continued for 3 hours. The balloon was released 60 minutes after the occlusion, and 10 mL of the infusion solution was infused intracoronarily.
One week after the occlusion, the infarct size was evaluated by late gadolinium enhanced MRI. […] The cardiac function was evaluated by determining left ventricular ejection fraction, end diastolic volume, end systolic volume, cardiac output, and left ventricular mass by MRI. The left ventricular systolic function was improved by KUS121 administration.
After the MRI, the occluded part of the left coronary artery was occluded again with the balloon catheter and 1% Evans blue was injected to the left and right coronary arteries (60 mL for the left coronary artery and 30 mL for the right coronary artery; non-infarct regions were stained blue). Additionally, 30 mL of 1% TTC solution was injected through the guidewire lumen of the occlusion balloon. Euthanasia was then performed by an intravenous injection of potassium chloride. The heart was isolated and 10-mm thick sections were prepared parallel to the atrioventricular groove. The sections were further immersed in 1% TTC solution for 10 minutes at 37° C. (regions not damaged by myocardial infarction were stained red). All sections were weighed and photographed. They were fixed in 10% formaldehyde and used for subsequent histological analysis. […] No difference was found in the area at risk between the […] group and the KUS group, but administration of KUS decreased the infarcted area per area at risk.

[9] = tested on: CHOP and Bip, ER stress markers; experiment: Western blotting of ER stress markers in rat cardiomyoblasts under tunicamycin; type: cell-based; details: H9C2 cells, 200 μM KUS121 (FIG. 5)
Description: as §1, §2

[10] = intravenous infusion plus intracoronary, histological analysis (Evans blue/TTC)

## Cc1cc(F)ccc1-c1ccc(/N=N/c2cc(S(=O)(=O)O)c3ccccc3c2N)cn1 [KUS121, 4-amino-3-[6-(4-fluoro-2-methylphenyl)pyridine-3-ylazo]naphthalene-1-sulfonic acid sodium salt]
[1]
  ATP level: increased depending on the dose
  cell number: increased depending on the dose
[2]
  expression of Bip: suppressed
  expression of CHOP: suppressed
[3]
  ATP level during ischemia (OFP/GFP ratio): maintained
[4]; 160 mg/kg i.p. 2 hours before reperfusion and every 24 hours for 6 days, seven days after surgery, Masson's trichrome
  infarcted area (ratio to left ventricle area): smaller in the KUS121 group than in the control group
[4]; 160 mg/kg i.p. prior to ischemia and every 24 hours, Western blotting
  expression of CHOP in the border zone and non-ischemic zone: suppressed
[4]; 160 mg/kg i.p. prior to ischemia and every 24 hours, echocardiography
  left ventricular systolic function (fractional shortening, ejection fraction): kept well at almost the same level as that in sham-operated group
[5]; (1) 160 mg/kg: 80 mg/kg i.v. + 80 mg/kg i.p. immediately after reperfusion, then 160 mg/kg i.p. every 24 hours for 4 days
  infarcted area (ratio to left ventricle area): smaller in the KUS121 group than in the control group
[5]; (2) 50 mg/kg: 25 mg/kg i.v. + 25 mg/kg i.p. immediately after reperfusion only
  infarcted area (ratio to left ventricle area): smaller in the KUS121 group than in the control group
[5]; (3) 16 mg/kg: 8 mg/kg i.v. + 8 mg/kg i.p. immediately after reperfusion only
  infarcted area (ratio to left ventricle area): No significant difference
[6]
  ratio of infarcted area/left ventricle (LV) area evaluated by MRI: decreased in the KUS121 group in a dose-dependent manner
[6]; histological analysis
  ratio of infarcted area/AAR: decreased in the KUS121 group in a dose-dependent manner
[6]; versus control group
  ratio of infarcted area/area at risk (AAR) (first mention): comparable with that of the control group
[7]
  ATP level: increased depending on the dose
  cell number: increased depending on the dose
[8]; 4 mg/kg intravenous infusion for 3 hours plus intracoronary infusion after reperfusion, MRI one week after occlusion
  left ventricular systolic function: improved
[8]; [10]
  area at risk relative to the left ventricle: No difference
  infarcted area per area at risk: decreased
[9]
  expression of Bip: suppressed
  expression of CHOP: suppressed
